Assay results reported in the supplement of paper PMC10307832.

Key:
Test in all cases: relative viability (nuclei count vs DMSO), 5 days (fraction); higher = more cells survive
NCI-H2347 = test system: NCI-H2347
Procedure, shortened: (§1)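 Cells from lung cancer lines were seeded into 1536-well plates and, one day later, dosed by pin tool. Treatments were either a single drug or a fixed dose of an anchor drug with five library-drug doses (not always all listed) in √10 steps. After 5 days, nuclei were stained in a one-step fixation (final 0.05% Triton X-100, 1% formaldehyde, 1 ug/ml Hoechst) and counted on 4× images, and relative viability is the treated-to-vehicle nuclei ratio, as the median of duplicate plates.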

EMC-BAC-2 = test system: EMC-BAC-2
Procedure, shortened: as §1

NCI-H2087 = test system: NCI-H2087
Procedure, shortened: as §1

NCI-H650 = test system: NCI-H650
Procedure, shortened: as §1

HARA = test system: HARA
Procedure, shortened: as §1

NCI-H23 = test system: NCI-H23
Procedure, shortened: as §1

HCC-44 = test system: HCC-44
Procedure, shortened: as §1

NCI-H596 = test system: NCI-H596
Procedure, shortened: as §1

NCI-H2126 = test system: NCI-H2126
Procedure, shortened: as §1

LOU-NH91 = test system: LOU-NH91
Procedure, shortened: as §1

NCI-H1993 = test system: NCI-H1993
Procedure, shortened: as §1

LCLC-103H = test system: LCLC-103H
Procedure, shortened: as §1

NCI-H647 = test system: NCI-H647
Procedure, shortened: as §1

NCI-H3122 = test system: NCI-H3122
Procedure, shortened: as §1

NCI-H441 = test system: NCI-H441
Procedure, shortened: as §1

NCI-H838 = test system: NCI-H838
Procedure, shortened: as §1

BEN = test system: BEN
Procedure, shortened: as §1

NCI-H727 = test system: NCI-H727
Procedure, shortened: as §1

NCI-H2023 = test system: NCI-H2023
Procedure, shortened: as §1

201T = test system: 201T
Procedure, shortened: as §1

CCN(CC)CCCCNc1ncc2cc(-c3cc(OC)cc(OC)c3)c(NC(=O)NC(C)(C)C)nc2n1 + CC(C)C[C@H](NC(=O)[C@H](Cc1ccccc1)NC(=O)c1cnccn1)B(O)O [Bortezomib] (partner 0.002 µM)
relative viability (NCI-H2347; first compound 0.01 µM): 0.855 | relative viability (NCI-H2347; first compound 0.03162 µM): 0.864 | relative viability (NCI-H2347; first compound 0.1 µM): 1.2 | relative viability (NCI-H2347; first compound 0.3162 µM): 1.16 | relative viability (NCI-H2347; first compound 1 µM): 0.639 | relative viability (EMC-BAC-2; first compound 0.01 µM): 1.11 | relative viability (EMC-BAC-2; first compound 0.03162 µM): 1.07 | relative viability (EMC-BAC-2; first compound 0.1 µM): 1.11 | relative viability (EMC-BAC-2; first compound 0.3162 µM): 1.19 | relative viability (EMC-BAC-2; first compound 1 µM): 1.04 | relative viability (NCI-H2087; first compound 0.01 µM): 0.85 | relative viability (NCI-H2087; first compound 0.03162 µM): 0.909 | relative viability (NCI-H2087; first compound 0.1 µM): 1.08 | relative viability (NCI-H2087; first compound 0.3162 µM): 1.04 | relative viability (NCI-H2087; first compound 1 µM): 0.689 | relative viability (NCI-H650; first compound 0.01 µM): 0.701 | relative viability (NCI-H650; first compound 0.03162 µM): 0.787 | relative viability (NCI-H650; first compound 0.1 µM): 1.1 | relative viability (NCI-H650; first compound 0.3162 µM): 0.921 | relative viability (NCI-H650; first compound 1 µM): 0.678 | relative viability (HARA; first compound 0.01 µM): 1.19 | relative viability (HARA; first compound 0.03162 µM): 1.12 | relative viability (HARA; first compound 0.1 µM): 1.26 | relative viability (HARA; first compound 0.3162 µM): 1.04 | relative viability (HARA; first compound 1 µM): 0.882 | relative viability (NCI-H23; first compound 0.01 µM): 1.06 | relative viability (NCI-H23; first compound 0.03162 µM): 1.24 | relative viability (NCI-H23; first compound 0.1 µM): 1.09 | relative viability (NCI-H23; first compound 0.3162 µM): 1.21 | relative viability (NCI-H23; first compound 1 µM): 0.91 | relative viability (HCC-44; first compound 0.01 µM): 0.908 | relative viability (HCC-44; first compound 0.03162 µM): 0.883 | relative viability (HCC-44; first compound 0.1 µM): 1.08 | relative viability (HCC-44; first compound 0.3162 µM): 1.03 | relative viability (HCC-44; first compound 1 µM): 0.896 | relative viability (NCI-H596; first compound 0.01 µM): 0.976 | relative viability (NCI-H596; first compound 0.03162 µM): 1.06 | relative viability (NCI-H596; first compound 0.1 µM): 1.03 | relative viability (NCI-H596; first compound 0.3162 µM): 1.16 | relative viability (NCI-H596; first compound 1 µM): 0.923 | relative viability (NCI-H2126; first compound 0.01 µM): 1.23 | relative viability (NCI-H2126; first compound 0.03162 µM): 1.16 | relative viability (NCI-H2126; first compound 0.1 µM): 1.22 | relative viability (NCI-H2126; first compound 0.3162 µM): 1.19 | relative viability (NCI-H2126; first compound 1 µM): 1.13 | relative viability (LOU-NH91; first compound 0.01 µM): 0.531 | relative viability (LOU-NH91; first compound 0.03162 µM): 0.49 | relative viability (LOU-NH91; first compound 0.1 µM): 0.498 | relative viability (LOU-NH91; first compound 0.3162 µM): 0.515 | relative viability (LOU-NH91; first compound 1 µM): 0.424 | relative viability (NCI-H1993; first compound 0.01 µM): 1 | relative viability (NCI-H1993; first compound 0.03162 µM): 0.981 | relative viability (NCI-H1993; first compound 0.1 µM): 1.26 | relative viability (NCI-H1993; first compound 0.3162 µM): 1.41 | relative viability (NCI-H1993; first compound 1 µM): 1.11 | relative viability (LCLC-103H; first compound 0.01 µM): 1.07 | relative viability (LCLC-103H; first compound 0.03162 µM): 1.06 | relative viability (LCLC-103H; first compound 0.1 µM): 1.09 | relative viability (LCLC-103H; first compound 0.3162 µM): 1.13 | relative viability (LCLC-103H; first compound 1 µM): 0.945 | relative viability (NCI-H647; first compound 0.01 µM): 1.02 | relative viability (NCI-H647; first compound 0.03162 µM): 0.996 | relative viability (NCI-H647; first compound 0.1 µM): 1.6 | relative viability (NCI-H647; first compound 0.3162 µM): 1.08 | relative viability (NCI-H647; first compound 1 µM): 1.07 | relative viability (NCI-H3122; first compound 0.01 µM): 1.02 | relative viability (NCI-H3122; first compound 0.03162 µM): 1.07 | relative viability (NCI-H3122; first compound 0.1 µM): 1.1 | relative viability (NCI-H3122; first compound 0.3162 µM): 1.06 | relative viability (NCI-H3122; first compound 1 µM): 1.01 | relative viability (NCI-H441; first compound 0.01 µM): 0.475 | relative viability (NCI-H441; first compound 0.03162 µM): 0.45 | relative viability (NCI-H441; first compound 0.1 µM): 0.817 | relative viability (NCI-H441; first compound 0.3162 µM): 0.489 | relative viability (NCI-H441; first compound 1 µM): 0.492 | relative viability (NCI-H838; first compound 0.01 µM): 0.793 | relative viability (NCI-H838; first compound 0.03162 µM): 0.732 | relative viability (NCI-H838; first compound 0.1 µM): 0.96 | relative viability (NCI-H838; first compound 0.3162 µM): 0.9 | relative viability (NCI-H838; first compound 1 µM): 0.579 | relative viability (BEN; first compound 0.01 µM): 0.819 | relative viability (BEN; first compound 0.03162 µM): 0.528 | relative viability (BEN; first compound 0.1 µM): 1.03 | relative viability (BEN; first compound 0.3162 µM): 0.766 | relative viability (BEN; first compound 1 µM): 0.715 | relative viability (NCI-H727; first compound 0.01 µM): 1.39 | relative viability (NCI-H727; first compound 0.03162 µM): 0.871 | relative viability (NCI-H727; first compound 0.1 µM): 0.809 | relative viability (NCI-H727; first compound 0.3162 µM): 1.2 | relative viability (NCI-H727; first compound 1 µM): 0.783 | relative viability (NCI-H2023; first compound 0.01 µM): 0.925 | relative viability (NCI-H2023; first compound 0.03162 µM): 1.08 | relative viability (NCI-H2023; first compound 0.1 µM): 1.16 | relative viability (NCI-H2023; first compound 0.3162 µM): 1.13 | relative viability (NCI-H2023; first compound 1 µM): 0.968 | relative viability (201T; first compound 0.01 µM): 1.03 | relative viability (201T; first compound 0.03162 µM): 1.14 | relative viability (201T; first compound 0.1 µM): 1.14 | relative viability (201T; first compound 0.3162 µM): 1.15 | relative viability (201T; first compound 1 µM): 0.976
